Like-named read-outs stand apart in the source and are kept apart here.
Tests used:
[1] = system: CD38+ T cells in the peripheral blood; conditions: Arm A, erdafitinib monotherapy, FIG. 7c
Method: In Phase 2, two dosing arms are explored: the erdafitinib monotherapy treatment at the starting oral dose of 8 mg (Arm A), or the combination treatment of erdafitinib and cetrelimab (Arm B).
For phase 1b, blood for immune cell profiling were collected at four time points (C1D1, C1D15, C2D1 and C3D1). For phase 2, blood was collected at six time points (C1D1, C1D15, C2D1, C2D15, C3D1 and C3D15). Blood samples were subjected to flow cytometry analysis on a real time basis. T cell activation is quantified as fold increase in the proportions of 1) CD38+CD3, CD38+CD4, or CD38+CD8 T cells out of lymphocytes or CD3 T cell populations, and 2) CD38+ cells out of CD4+ or CD8+ T cell populations, compared to the baseline proportion levels at C1D1.
(§1) Longitudinal blood samples were analyzed from DL2A (E8J cohort: Erda 8 mg+cetrelimab 240 mg), DL2B (E8RJ cohort: Erda 8 mg 28 days run-in +cetrelimab 240 mg), and DL2 (EJ cohort: Erda 8 mg with the potential dose adjustments to 9 mg depending on phosphate levels measured on C1D15+cetrelimab 240 mg) of phase 1b, and blood samples from Arm A and Arm B of phase 2.

[2] = system: CD38+ T cells in the peripheral blood; test: Phase 1b: flow cytometry immune cell profiling of blood, T cell activation (CD38+ T cells vs C1D1 baseline); type: in vivo, human; conditions: E8RJ cohort, at C1D15, erdafitinib treatment alone; FIG. 4C
From the text: Phase 1b is the dose escalation part of the study wherein two dosing cohorts (Standard Cohorts and Alternative Cohorts) of erdafitinib were explored, while cetrelimab intravenous (IV) dose was fixed. In the Standard Cohorts (DL1, DL2 or DL2A), erdafitinib and cetrelimab start concurrently from Cycle 1 Day 1 (C1D1). In the Alternative Cohorts (DL1B or DL2B), administration of erdafitinib starts on C1D1 but cetrelimab is initiated 1 cycle (4 weeks) later, on Cycle 2 Day 1 (C2D1) (also referred to as a 28-day run-in of erdafitinib).
For phase 1b, blood for immune cell profiling were collected at four time points (C1D1, C1D15, C2D1 and C3D1). […] Blood samples were subjected to flow cytometry analysis on a real time basis. T cell activation is quantified as fold increase in the proportions of 1) CD38+CD3, CD38+CD4, or CD38+CD8 T cells out of lymphocytes or CD3 T cell populations, and 2) CD38+ cells out of CD4+ or CD8+ T cell populations, compared to the baseline proportion levels at C1D1.
as §1

Structure (SMILES): COc1cc(OC)cc(N(CCNC(C)C)c2ccc3ncc(-c4cnn(C)c4)nc3c2)c1 [erdafitinib, N-(3,5-dimethoxyphenyl)-N′-(1-methylethyl)-N-[3-(1-methyl-1H-pyrazol-4-yl)quinoxalin-6-yl]ethane-1,2-diamine]
- extent of increase of proportion of CD38+CD8 T cells ([1]; compared with Arm B): less than that observed in Arm B
- proportion of CD38+CD8 T cells [1]: increased with time
- proportion of CD38+CD8 T cells [2]: dramatically increased

From US20230135136A1, “FGFR TYROSINE KINASE INHIBITORS AND ANTI-PDI AGENTS FOR THE TREATMENT OF UROTHELIAL CARCINOMA” (Janssen Pharmaceutica NV, priority 2020, published 2023)
